Tested on: mitochondrial ETC
Assay: P. falciparum oxygen consumption rate (OCR) assay (Seahorse XFe96)
Assay type: cell-based, Plasmodium falciparum
Conditions: compounds 5 μM
Method: To provide further evidence to support the cyclopropyl carboxamide series targeting cyt b, an oxygen consumption rate (OCR) assay was performed using a Seahorse XFe96 Flux Analyzer. The primary role of the mitochondria ETC is to produce ATP oxidative phosphorylation, and thus the oxygen consumption directly quantifies mitochondrial ETC activity. In this assay, malate, which is a substrate of malate quinone dehydrogenase (MQD), was added to provide a base line of oxygen consumption at approximately 50 pmol/min (Fig. 4). […] Finally, NaN3 was added to inhibit complex IV to bring the OCR back to basal levels.
Fig. 4 P. falciparum oxygen consumption rate (OCR) assay. Data represent the means and SDs of 3 technical replicates. Time points and reagent injections were as follows, 1. First 5 timepoints measured the basal level of malate-dependent OCR; 2. Compounds (5 μM) were injected independently (indicated by arrow), and OCR measured for 8-timepoints; 3. TMPD (a cytochrome c electron donor) was injected, and OCR measured for 5 time points; 4. NaN3 (a complex IV inhibitor) was then added, and OCR measured for 5 time points.
ETC Biosensor Assay. This assay was performed as previously described. Briefly, 3 × 10^8 trophozoite infected RBCs were purified using the SuperMACS II separator (Miltenyi Biotec, Germany). The trophozoite-stage parasites were released from erythrocytes by treating them with 0.05 % (w/v) pre-warmed saponin in phosphate-buffered saline (PBS) at 37 °C for 3 min. The cells were washed with pre-warmed PBS, three times. […] The cells were measured for oxygen consumption rate (OCR) using Seahorse XFe96 flux analyzer (Agilent). The OCR was assessed for five cycles of 20 s mixing, 1 min waiting, 2.5 min measuring to establish baseline OCR before any substrate injections, for eight cycles of 20 s mixing, 1 min waiting followed by 2.5 min measuring after inhibitor injection from port A and for five cycles of 20 s mixing 1 min waiting, 2.5 min measuring after TMPD, and NaN3, injections.

O=C(NC1CC1)c1ccc(CN(Cc2ccc(Cl)cc2Cl)C2CC2)cc1 [W499 (2)]
effect on malate-dependent oxygen consumption rate (OCR): reduced the OCR to the same level as ATQ

Reference: paper PMC11609934, “Exploration and characterization of the antimalarial activity of cyclopropyl carboxamides that target the mitochondrial protein, cytochrome b” (European Journal of Medicinal Chemistry, 2024)
